Earlier results in patent US20190038750A1, “TRIPLE ANTIBIOTIC CATIONIC OINTMENT” (priority 2017, published 2019).

What was measured:
[1] = in vivo
[2] = system: Aspergillus brasiliensis (mold)
[3] = system: Staphylococcus aureus (also the methicillin-resistant type, MRSA)
[4] = system: vancomycin-resistant enterococci
[5] = system: Klebsiella pneumoniae (carbapenem-resistant enterobacteriaceae)
bacteria = conditions: very low concentrations

Substance: benzalkonium chloride
- burning sensation [1]: does not cause a burning sensation

Substance: polyhexamethylenebiguanide [PHMB]
- effective against Pseudomonas aeruginosa (Pseudomonas aeruginosa): effective
- effective against Escherichia coli (Escherichia coli): effective
- effective against Aspergillus brasiliensis [2]: effective
- effective against Candida albicans (Candida albicans (yeast)): effective
- effective against Staphylococcus aureus (also MRSA) [3]: effective
- effective against vancomycin-resistant enterococci [4]: effective
- effective against Klebsiella pneumoniae (carbapenem-resistant) [5]: effective

Substance: Polyaminopropylbiguanide [PAPB]
- fungicidal (fungus): fungicidal
- bactericidal concentration (bacteria): 10 mg/1
